Source: patent US20240217947A1, “Morpholinylquinazoline Compound, Pharmaceutical compositions thereof and Use Thereof” (SHANGHAI YINGLI PHARMACEUTICAL CO., LTD, priority 2022, published 2024)

Columns and labels:
Type in all cases: biochemical
PI3Kδ = PI3Kδ (Homo sapiens, UniProt O00329); assay: PI3Kδ enzyme activity inhibition IC50 evaluation assay (ADP-Glo Kinase Assay); conditions: ATP 25 μM, PIP2 50 μg/mL, 1 hour room temperature, read-out: PI3K-δ IC50
Protocol: Effec Example 1 IC50 evaluation assay for PI3Kα, PI3Kδ, PI3Kβ and PI3Kγ enzyme activity inhibition
The experiment was performed using the ADP-Glo Kinase Assay kit, following the instructions. The following buffer solutions were prepared: 50 mM HEPES, pH 7.5, 3 mM MgCl2, 1 mM EGTA, 100 mM NaCl, 0.03% CHAPS, 2 mM DTT. The test compound samples were dissolved in DMSO and added to the screening system at a certain starting concentration such as 10 μM, 3-fold dilution, while setting up both DMSO control and no kinase control. The optimal concentrations of PI3Kα, PI3Kδ, PI3Kβ and PI3Kγ enzymes, substrate (PIP2) and ATP were prepared in buffer. The enzyme reaction system included: buffer, ATP 25 μM, kinase substrate (PIP2, 50 μg/mL), kinases [PI3Kα (0.15 μg/mL), PI3Kδ (1.2 μg/mL), PI3Kβ (0.3 μg/mL) and PI3Kγ (2.5 μg/mL)], etc. The reaction system was reacted at room temperature for 1 hour. The reaction was terminated by adding a termination reagent (ADP-Glo reagent, 5 μL), and the ADP content in the system was detected using a detection reagent (Kinase Detection Reagent, 10 μL). Signal data were collected using the Envision instrument. Calculate the percentage of (%) inhibition according to the following formula: % inhibition=(DMSO control signal value−sample signal value)/(DMSO control signal value−no-kinase control signal value). The IC50 value was obtained by fitting the curve using the formula Y=Bottom+(Top-Bottom)/(1+(IC50/X)^HillSlope).

HDAC6 = molecular target: T1, HDAC6 (Homo sapiens, UniProt Q9UBN7); assay: HDAC6 enzyme activity inhibition IC50 evaluation experiment; conditions: HDAC6 5 nM, acetylated peptide 11 μM, trypsin, fluorescence
T1 sequence (Q9UBN7 1-1215): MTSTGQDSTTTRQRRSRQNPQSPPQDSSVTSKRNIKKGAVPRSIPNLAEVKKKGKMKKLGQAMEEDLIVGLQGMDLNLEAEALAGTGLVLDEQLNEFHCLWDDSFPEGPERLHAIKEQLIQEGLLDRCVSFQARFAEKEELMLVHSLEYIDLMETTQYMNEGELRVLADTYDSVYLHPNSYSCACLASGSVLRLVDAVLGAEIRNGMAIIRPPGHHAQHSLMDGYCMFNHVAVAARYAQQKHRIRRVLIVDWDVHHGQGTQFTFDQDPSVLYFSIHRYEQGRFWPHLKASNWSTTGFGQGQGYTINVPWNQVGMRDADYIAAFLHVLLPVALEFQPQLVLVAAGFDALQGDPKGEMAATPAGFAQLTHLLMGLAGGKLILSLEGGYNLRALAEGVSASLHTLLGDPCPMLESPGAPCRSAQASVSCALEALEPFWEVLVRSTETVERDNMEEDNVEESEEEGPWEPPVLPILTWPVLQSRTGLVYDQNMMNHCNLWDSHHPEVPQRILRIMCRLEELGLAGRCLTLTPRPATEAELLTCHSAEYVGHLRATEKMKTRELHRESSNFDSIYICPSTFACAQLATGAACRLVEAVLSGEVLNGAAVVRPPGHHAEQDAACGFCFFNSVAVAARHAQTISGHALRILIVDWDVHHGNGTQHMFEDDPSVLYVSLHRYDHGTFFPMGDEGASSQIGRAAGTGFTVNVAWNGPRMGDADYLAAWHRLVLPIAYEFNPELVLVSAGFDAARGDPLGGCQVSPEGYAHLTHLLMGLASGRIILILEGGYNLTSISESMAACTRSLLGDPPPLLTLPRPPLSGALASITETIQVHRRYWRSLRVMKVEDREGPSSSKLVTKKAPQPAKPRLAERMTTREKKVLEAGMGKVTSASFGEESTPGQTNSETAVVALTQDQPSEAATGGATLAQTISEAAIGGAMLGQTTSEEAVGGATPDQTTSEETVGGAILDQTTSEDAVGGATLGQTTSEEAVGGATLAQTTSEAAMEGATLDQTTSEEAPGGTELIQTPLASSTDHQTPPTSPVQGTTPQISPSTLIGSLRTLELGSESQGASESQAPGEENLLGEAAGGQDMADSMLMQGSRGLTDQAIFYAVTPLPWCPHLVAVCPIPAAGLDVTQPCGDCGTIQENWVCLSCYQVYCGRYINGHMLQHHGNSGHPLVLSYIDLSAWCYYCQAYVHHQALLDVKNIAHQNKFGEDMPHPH
Protocol: (§1) Effect Example 2 HDAC1, HDAC2, HDAC3, HDAC6 enzyme activity inhibition IC50 evaluation experiment
(§2) Buffer solution (50 mM Tris 7.5, 0.01% Tween-20, 50 mM NaCl) was prepared according to the kit instructions, and the enzyme solution and substrate solution (acetylated peptide with the addition of trypsin) were prepared using the buffer solution. The test compound samples were dissolved with DMSO and added to the screening system at a certain starting concentration such as 10 μM, 3-fold dilution, while setting up a DMSO control and no-enzyme control. The enzyme reaction system includes: buffer, enzyme [final concentration: HDAC1=10 nM, HDAC2=4 nM, HDAC3=7 nM, HDAC6=5 nM], substrate (acetylated peptide) [final concentration: Peptide(HDAC1)=8 μM, Peptide(HDAC2)=10 μM, Peptide(HDAC3)=5 μM, Peptide(HDAC6)=11 μM], trypsin [final concentration: Trypsin(HDAC1,2,3)=0.05 μM, Trypsin(HDAC6)=0.1 μM], etc. The enzymes and compounds were reacted at room temperature for 15 min. After adding the substrate and Trypsin, centrifugation was performed for 1 min, and the fluorescence signal data (excitation wavelength 355 nM/emission wavelength 460 nm) was read continuously for 60 min using Envision, and the linear reaction segment was selected to obtain the slope and thus calculate the inhibition rate at that concentration. The IC50 value was obtained by fitting the curve using the formula Y=Bottom+(Top-Bottom)/(1+(IC50/X)^HillSlope).

HDAC1 = HDAC1 (Homo sapiens, UniProt Q13547); assay: HDAC1 enzyme activity inhibition IC50 evaluation experiment; conditions: HDAC1 10 nM, acetylated peptide 8 μM, trypsin, fluorescence
Protocol: as §1, §2

HDAC2 = HDAC2 (Homo sapiens, UniProt Q92769); assay: HDAC2 enzyme activity inhibition IC50 evaluation experiment; conditions: HDAC2 4 nM, acetylated peptide 10 μM, trypsin, fluorescence
Protocol: as §1, §2

Chain of PI3Kδ (O00329 whole entry, species assumed): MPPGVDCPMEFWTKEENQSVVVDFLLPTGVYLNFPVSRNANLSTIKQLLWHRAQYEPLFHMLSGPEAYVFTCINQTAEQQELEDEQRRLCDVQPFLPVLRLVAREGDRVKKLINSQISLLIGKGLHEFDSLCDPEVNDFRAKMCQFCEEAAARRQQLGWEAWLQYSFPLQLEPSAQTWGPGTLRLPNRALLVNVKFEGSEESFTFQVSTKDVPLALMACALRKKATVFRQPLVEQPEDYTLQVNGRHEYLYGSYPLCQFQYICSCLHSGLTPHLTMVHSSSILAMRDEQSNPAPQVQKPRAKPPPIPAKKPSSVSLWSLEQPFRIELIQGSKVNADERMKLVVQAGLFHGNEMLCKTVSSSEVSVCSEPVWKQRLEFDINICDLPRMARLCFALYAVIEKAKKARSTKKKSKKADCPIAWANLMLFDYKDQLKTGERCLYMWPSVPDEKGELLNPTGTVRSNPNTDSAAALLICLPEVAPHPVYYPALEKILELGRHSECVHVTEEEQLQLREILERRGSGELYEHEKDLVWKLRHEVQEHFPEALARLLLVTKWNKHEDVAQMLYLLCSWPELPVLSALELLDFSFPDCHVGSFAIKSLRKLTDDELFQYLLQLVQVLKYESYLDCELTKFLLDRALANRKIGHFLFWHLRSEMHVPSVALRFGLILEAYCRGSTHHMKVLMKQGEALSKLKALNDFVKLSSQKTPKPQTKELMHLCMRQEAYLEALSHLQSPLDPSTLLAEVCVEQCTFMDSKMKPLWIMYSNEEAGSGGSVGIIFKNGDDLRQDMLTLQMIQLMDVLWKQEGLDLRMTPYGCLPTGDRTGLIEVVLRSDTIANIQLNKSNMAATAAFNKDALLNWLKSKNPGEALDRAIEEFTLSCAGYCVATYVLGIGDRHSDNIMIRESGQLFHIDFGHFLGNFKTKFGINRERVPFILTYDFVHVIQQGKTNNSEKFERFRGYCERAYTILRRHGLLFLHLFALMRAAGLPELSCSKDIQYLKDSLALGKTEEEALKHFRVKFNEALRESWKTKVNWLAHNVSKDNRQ
Chain of PI3Kδ (P27986 whole entry partner, species assumed): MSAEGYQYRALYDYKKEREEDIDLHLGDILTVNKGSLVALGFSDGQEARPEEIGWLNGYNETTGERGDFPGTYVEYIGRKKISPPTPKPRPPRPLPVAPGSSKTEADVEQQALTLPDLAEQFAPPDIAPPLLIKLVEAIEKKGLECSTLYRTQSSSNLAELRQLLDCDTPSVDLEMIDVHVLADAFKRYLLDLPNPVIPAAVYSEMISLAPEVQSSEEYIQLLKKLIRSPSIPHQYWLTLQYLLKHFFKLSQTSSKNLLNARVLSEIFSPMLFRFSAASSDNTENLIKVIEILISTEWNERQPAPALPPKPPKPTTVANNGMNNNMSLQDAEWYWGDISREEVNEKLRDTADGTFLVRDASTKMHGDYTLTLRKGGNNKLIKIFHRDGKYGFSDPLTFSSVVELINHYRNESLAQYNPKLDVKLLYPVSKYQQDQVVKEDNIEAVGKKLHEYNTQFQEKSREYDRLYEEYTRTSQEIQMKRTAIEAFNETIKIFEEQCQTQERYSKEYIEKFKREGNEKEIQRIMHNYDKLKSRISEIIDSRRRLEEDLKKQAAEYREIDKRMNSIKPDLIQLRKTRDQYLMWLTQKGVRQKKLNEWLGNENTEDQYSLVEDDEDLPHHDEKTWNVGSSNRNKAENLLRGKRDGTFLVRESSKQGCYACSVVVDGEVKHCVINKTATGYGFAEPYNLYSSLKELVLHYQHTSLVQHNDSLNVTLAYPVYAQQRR
Chain of HDAC1 (Q13547 whole entry, species assumed): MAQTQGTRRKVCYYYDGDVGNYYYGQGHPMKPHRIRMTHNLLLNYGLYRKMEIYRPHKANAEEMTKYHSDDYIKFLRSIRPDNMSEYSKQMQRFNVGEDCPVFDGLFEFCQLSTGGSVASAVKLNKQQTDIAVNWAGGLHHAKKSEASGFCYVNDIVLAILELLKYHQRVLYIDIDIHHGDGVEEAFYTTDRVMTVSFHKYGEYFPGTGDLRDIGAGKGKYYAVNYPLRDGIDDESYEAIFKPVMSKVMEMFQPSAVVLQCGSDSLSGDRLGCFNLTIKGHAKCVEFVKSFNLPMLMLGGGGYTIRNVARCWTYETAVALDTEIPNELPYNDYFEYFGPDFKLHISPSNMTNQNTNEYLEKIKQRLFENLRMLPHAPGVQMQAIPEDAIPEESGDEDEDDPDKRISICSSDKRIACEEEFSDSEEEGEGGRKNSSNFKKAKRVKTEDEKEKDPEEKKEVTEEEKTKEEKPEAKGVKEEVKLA
Chain of HDAC2 (Q92769 whole entry, species assumed): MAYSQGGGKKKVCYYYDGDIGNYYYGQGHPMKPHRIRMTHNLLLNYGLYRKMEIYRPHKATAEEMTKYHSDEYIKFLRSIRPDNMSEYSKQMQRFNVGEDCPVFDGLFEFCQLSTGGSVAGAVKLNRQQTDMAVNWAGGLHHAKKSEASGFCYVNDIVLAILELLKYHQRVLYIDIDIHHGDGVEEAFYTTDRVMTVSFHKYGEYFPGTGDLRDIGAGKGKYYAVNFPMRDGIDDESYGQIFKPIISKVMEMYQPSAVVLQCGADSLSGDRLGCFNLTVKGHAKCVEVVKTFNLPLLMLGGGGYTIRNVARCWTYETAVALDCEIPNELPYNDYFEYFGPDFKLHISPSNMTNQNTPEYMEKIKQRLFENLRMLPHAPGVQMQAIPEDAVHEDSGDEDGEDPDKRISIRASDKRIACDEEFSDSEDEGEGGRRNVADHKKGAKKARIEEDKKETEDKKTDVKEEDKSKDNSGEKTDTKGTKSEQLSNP

SMILES | IC50 (PI3Kδ) | IC50 (HDAC6) | IC50 (HDAC1) | IC50 (HDAC2)
COc1ncc(-c2nc(N3CCOCC3)nc3c(OCCCCCCC(=O)NO)cc(F)cc23)cc1NS(C)(=O)=O [Compound 9] | 10 to 100 nM | ≤ 10 nM | ≤ 10 nM | ≤ 10 nM
COc1ncc(-c2nc(N3CCOCC3)nc3c(OC4CCN(c5ncc(C(=O)NO)cc5F)CC4)cc(F)cc23)cc1NS(C)(=O)=O [Compound 30] | 10 to 100 nM | 10 to 100 nM | 100 to 1000 nM | 100 to 1000 nM
COc1ncc(-c2nc(N3CCOCC3)nc3c(OC4CCN(c5ccc(C(=O)NO)cn5)CC4)cc(F)cc23)cc1NS(C)(=O)=O [Compound 40] | ≤ 10 nM | 10 to 100 nM | 10 to 100 nM | 100 to 1000 nM

Now from value to molecule:

IC50 (PI3Kδ) | IC50 (HDAC6) | IC50 (HDAC1) | IC50 (HDAC2) | SMILES
≤ 10 nM | 10 to 100 nM | 10 to 100 nM | 10 to 100 nM | COc1ncc(-c2nc(N3CCOCC3)nc3c(CN4CCN(c5ncc(C(=O)NO)cn5)CC4)cc(F)cc23)cc1NS(C)(=O)=O [Compound 7]
≤ 10 nM | 100 to 1000 nM | ≤ 10 nM | 10 to 100 nM | COc1ncc(-c2nc(N3CCOCC3)nc3c(OC4CCN(c5ncc(C(=O)NO)cn5)CC4)cc(F)cc23)cc1NS(C)(=O)=O [Compound 39]
